{"source": "ChEMBL document CHEMBL1201862", "about": "“PubChem BioAssay data set” (2004)", "key": {"[1]": {"target": "T1, RNA-binding protein pos-1 (Caenorhabditis elegans, UniProt G5EF15)", "T1 sequence (G5EF15 whole entry)": "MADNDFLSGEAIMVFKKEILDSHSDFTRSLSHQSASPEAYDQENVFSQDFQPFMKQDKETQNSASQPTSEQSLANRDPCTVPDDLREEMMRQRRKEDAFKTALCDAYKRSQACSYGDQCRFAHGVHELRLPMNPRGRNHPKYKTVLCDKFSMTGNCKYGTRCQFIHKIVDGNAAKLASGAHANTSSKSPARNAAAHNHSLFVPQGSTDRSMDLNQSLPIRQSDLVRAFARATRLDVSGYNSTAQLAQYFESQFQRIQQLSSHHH", "test": "disruptors of C. elegans POS-1 RNA interaction – biochemical, fluorescence polarization, dose response (AID 1964);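 further: purified POS-1 fused to maltose binding protein made in E. coli; potency of compounds blocking POS-1 binding to fluorescent RNA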"}, "[2]": {"target": "T2, Zinc finger protein mex-5 (Caenorhabditis elegans, UniProt Q9XUB2)", "T2 sequence (Q9XUB2 whole entry)": "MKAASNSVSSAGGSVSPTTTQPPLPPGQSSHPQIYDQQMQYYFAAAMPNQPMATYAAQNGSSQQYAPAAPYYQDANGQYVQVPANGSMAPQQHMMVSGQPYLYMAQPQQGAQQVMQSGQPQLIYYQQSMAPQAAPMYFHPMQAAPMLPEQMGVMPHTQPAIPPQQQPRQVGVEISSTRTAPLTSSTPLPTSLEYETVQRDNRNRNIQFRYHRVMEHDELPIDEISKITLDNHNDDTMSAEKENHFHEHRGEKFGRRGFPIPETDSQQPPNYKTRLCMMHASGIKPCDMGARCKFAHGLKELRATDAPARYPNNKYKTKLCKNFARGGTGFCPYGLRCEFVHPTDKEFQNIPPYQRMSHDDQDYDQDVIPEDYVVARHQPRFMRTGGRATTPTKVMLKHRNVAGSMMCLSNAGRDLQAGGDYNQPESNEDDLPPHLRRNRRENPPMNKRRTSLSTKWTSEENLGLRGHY", "test": "potency of MEX-5 RNA-binding blockers – biochemical, C. elegans, fluorescence polarization, dose response (AID 1960)"}, "[3]": {"target": "Genome polyprotein (dengue virus type 2, UniProt P29990)", "sequence (P29990 2492-3391 limits assumed)": "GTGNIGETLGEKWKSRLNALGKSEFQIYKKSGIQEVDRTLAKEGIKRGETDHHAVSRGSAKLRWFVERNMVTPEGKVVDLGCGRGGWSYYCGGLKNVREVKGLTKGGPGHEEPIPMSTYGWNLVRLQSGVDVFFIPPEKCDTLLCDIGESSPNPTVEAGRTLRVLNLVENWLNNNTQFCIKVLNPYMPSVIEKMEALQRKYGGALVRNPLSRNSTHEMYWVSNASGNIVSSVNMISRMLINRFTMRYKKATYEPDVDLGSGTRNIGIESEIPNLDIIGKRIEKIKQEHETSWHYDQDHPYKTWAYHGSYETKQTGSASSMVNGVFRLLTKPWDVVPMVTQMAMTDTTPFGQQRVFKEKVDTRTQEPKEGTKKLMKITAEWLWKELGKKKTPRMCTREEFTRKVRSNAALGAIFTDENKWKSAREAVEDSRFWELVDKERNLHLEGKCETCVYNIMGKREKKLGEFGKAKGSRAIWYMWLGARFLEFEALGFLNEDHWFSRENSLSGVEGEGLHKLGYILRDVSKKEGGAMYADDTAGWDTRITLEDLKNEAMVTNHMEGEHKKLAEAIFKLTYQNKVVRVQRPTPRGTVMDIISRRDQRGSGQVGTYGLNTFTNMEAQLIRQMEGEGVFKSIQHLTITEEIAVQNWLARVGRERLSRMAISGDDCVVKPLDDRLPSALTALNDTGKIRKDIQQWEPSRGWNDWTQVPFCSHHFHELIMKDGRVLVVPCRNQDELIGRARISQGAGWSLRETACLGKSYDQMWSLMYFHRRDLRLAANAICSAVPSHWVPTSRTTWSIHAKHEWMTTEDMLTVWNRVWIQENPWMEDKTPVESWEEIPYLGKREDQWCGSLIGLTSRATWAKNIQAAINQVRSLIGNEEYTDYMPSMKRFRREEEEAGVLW", "test": "flavivirus cap methylation enzyme inhibition – biochemical, confirmation dose response, primary screen (AID 588689)", "assay_type": "functional"}, "[4]": {"target": "T3, Rac GTPase-activating protein 1 (Homo sapiens, UniProt Q9H0H5)", "T3 sequence (Q9H0H5 whole entry)": "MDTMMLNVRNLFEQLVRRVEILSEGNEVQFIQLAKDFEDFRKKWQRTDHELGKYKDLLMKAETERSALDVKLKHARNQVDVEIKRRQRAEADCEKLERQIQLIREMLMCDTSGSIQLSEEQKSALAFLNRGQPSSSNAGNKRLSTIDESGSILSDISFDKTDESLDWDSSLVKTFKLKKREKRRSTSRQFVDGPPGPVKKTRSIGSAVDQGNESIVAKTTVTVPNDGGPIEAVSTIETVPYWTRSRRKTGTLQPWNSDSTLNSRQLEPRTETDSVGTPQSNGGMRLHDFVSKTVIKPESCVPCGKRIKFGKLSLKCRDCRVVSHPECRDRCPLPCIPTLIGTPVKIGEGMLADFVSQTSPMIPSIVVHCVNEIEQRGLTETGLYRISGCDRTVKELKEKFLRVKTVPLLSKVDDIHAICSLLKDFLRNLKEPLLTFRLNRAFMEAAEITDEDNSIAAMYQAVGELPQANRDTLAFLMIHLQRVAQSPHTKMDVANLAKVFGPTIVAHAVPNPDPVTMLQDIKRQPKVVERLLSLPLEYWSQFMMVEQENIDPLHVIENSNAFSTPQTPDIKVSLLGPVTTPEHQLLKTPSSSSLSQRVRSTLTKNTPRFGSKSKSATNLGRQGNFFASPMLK", "test": "blockers of MgcRacGAP-driven Rac1 GTP hydrolysis – biochemical, ADP Hunter fluorescence, primary and confirmatory, confirmation (AID 624330)", "assay_type": "functional"}, "[5]": {"target": "T4, Aminopeptidase N (Plasmodium falciparum FcB1/Columbia, UniProt O96935)", "T4 sequence (O96935 whole entry)": "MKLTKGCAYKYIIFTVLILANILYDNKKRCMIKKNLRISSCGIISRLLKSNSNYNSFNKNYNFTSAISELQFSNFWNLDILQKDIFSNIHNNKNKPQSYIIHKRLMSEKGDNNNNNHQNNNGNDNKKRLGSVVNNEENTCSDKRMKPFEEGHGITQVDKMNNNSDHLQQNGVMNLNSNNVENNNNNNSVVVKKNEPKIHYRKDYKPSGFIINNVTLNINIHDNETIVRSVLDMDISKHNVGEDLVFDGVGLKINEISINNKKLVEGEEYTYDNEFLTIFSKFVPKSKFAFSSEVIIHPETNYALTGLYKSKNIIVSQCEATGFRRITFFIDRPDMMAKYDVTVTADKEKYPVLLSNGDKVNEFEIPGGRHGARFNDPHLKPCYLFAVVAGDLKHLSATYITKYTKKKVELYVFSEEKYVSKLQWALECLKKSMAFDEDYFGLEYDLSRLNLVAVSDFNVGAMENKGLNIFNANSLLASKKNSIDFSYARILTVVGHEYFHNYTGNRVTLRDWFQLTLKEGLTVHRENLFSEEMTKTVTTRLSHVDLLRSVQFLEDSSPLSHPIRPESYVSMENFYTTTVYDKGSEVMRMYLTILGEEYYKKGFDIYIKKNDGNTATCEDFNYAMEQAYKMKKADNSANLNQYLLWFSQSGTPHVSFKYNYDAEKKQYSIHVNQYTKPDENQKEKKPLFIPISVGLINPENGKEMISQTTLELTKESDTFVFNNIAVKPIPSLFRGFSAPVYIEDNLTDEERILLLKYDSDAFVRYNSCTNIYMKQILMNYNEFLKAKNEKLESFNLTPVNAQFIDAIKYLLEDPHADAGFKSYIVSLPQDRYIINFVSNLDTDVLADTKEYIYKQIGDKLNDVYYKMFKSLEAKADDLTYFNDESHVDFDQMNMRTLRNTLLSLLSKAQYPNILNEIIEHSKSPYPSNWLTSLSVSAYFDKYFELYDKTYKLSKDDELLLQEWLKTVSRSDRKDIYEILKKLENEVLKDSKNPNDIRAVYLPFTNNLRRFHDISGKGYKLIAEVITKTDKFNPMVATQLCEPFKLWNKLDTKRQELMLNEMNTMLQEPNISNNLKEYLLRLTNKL", "test": "malaria alanyl aminopeptidase activity blockers – biochemical, fluorogenic H-Leu-NHMec substrate, 1536-well (AID 1445)", "set-up": "species or system Plasmodium falciparum 3D7, 3D7"}, "[6]": {"target": "T5, Polyadenylate-binding protein 1 (Homo sapiens, UniProt P11940)", "T5 sequence (P11940 whole entry)": "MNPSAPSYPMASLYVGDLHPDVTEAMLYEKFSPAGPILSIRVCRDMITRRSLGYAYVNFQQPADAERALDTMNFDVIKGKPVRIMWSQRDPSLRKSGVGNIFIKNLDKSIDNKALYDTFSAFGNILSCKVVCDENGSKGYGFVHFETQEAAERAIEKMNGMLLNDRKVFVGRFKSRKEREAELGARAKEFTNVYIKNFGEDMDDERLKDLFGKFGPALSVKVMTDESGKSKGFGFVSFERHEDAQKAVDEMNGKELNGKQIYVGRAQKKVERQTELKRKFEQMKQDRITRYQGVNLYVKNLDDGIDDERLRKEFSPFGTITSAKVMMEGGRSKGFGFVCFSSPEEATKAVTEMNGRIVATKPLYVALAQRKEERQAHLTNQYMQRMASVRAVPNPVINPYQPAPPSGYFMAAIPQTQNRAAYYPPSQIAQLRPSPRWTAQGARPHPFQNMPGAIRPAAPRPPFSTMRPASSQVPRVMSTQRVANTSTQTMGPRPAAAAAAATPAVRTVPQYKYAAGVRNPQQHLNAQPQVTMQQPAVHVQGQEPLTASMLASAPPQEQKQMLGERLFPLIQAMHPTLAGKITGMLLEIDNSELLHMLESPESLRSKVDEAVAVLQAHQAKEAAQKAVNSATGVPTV", "test": "MLLE binding blockers, Cy5 peptide tracer – biochemical, fluorescence polarization, Cy5-PAM2 peptide, secondary, miRNA deadenylation inhibitor project, dose response (AID 602260)", "assay_type": "functional", "conditions": "read-out: IC50_Mean"}, "[7]": {"target": "T5, Polyadenylate-binding protein 1", "test": "MLLE domain peptide-binding blockers, IC50 – biochemical, fluorescence polarization, FITC-PAM2 peptide, dose response (AID 602259)", "assay_type": "functional", "conditions": "read-out: IC50_Mean"}, "[8]": {"test": "Luminescence Cell-Based Dose Retest to Confirm Inhibitors of Cancer Stem Cells. [Related pubchem assays (depositor defined):AID2717, AID2721]", "assay_type": "functional", "conditions": "Homo sapiens"}, "[9]": {"target": "T6, Microphthalmia-associated transcription factor (Homo sapiens, UniProt O75030)", "T6 sequence (O75030 whole entry)": "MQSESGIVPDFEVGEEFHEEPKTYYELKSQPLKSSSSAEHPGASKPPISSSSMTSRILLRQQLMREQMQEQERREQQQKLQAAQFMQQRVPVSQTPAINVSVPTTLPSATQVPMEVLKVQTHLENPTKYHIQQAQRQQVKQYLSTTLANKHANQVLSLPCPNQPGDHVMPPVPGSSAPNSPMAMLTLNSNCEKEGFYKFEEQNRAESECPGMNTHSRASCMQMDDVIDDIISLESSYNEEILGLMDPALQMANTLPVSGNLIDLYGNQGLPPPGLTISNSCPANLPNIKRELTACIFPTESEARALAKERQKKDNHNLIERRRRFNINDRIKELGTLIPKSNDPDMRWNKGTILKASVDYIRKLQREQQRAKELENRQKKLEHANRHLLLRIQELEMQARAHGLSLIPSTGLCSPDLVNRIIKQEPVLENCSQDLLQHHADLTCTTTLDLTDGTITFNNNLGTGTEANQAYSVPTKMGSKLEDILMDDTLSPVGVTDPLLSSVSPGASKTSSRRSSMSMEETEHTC", "test": "reducers of TRPM1 reporter luminescence, concentration series – cell-based, SK-MEL-5, cherry-picked, set 3, MITF inhibitor project, dose response (AID 493073)", "assay_type": "functional"}, "[10]": {"target": "T7, Voltage-gated N-type calcium channel alpha-1B subunit/Amyloid beta A4 precursor protein-binding family A member 1 (Homo sapiens, UniProt Q00975+Q02410)", "T7 sequence (Q00975 whole entry)": "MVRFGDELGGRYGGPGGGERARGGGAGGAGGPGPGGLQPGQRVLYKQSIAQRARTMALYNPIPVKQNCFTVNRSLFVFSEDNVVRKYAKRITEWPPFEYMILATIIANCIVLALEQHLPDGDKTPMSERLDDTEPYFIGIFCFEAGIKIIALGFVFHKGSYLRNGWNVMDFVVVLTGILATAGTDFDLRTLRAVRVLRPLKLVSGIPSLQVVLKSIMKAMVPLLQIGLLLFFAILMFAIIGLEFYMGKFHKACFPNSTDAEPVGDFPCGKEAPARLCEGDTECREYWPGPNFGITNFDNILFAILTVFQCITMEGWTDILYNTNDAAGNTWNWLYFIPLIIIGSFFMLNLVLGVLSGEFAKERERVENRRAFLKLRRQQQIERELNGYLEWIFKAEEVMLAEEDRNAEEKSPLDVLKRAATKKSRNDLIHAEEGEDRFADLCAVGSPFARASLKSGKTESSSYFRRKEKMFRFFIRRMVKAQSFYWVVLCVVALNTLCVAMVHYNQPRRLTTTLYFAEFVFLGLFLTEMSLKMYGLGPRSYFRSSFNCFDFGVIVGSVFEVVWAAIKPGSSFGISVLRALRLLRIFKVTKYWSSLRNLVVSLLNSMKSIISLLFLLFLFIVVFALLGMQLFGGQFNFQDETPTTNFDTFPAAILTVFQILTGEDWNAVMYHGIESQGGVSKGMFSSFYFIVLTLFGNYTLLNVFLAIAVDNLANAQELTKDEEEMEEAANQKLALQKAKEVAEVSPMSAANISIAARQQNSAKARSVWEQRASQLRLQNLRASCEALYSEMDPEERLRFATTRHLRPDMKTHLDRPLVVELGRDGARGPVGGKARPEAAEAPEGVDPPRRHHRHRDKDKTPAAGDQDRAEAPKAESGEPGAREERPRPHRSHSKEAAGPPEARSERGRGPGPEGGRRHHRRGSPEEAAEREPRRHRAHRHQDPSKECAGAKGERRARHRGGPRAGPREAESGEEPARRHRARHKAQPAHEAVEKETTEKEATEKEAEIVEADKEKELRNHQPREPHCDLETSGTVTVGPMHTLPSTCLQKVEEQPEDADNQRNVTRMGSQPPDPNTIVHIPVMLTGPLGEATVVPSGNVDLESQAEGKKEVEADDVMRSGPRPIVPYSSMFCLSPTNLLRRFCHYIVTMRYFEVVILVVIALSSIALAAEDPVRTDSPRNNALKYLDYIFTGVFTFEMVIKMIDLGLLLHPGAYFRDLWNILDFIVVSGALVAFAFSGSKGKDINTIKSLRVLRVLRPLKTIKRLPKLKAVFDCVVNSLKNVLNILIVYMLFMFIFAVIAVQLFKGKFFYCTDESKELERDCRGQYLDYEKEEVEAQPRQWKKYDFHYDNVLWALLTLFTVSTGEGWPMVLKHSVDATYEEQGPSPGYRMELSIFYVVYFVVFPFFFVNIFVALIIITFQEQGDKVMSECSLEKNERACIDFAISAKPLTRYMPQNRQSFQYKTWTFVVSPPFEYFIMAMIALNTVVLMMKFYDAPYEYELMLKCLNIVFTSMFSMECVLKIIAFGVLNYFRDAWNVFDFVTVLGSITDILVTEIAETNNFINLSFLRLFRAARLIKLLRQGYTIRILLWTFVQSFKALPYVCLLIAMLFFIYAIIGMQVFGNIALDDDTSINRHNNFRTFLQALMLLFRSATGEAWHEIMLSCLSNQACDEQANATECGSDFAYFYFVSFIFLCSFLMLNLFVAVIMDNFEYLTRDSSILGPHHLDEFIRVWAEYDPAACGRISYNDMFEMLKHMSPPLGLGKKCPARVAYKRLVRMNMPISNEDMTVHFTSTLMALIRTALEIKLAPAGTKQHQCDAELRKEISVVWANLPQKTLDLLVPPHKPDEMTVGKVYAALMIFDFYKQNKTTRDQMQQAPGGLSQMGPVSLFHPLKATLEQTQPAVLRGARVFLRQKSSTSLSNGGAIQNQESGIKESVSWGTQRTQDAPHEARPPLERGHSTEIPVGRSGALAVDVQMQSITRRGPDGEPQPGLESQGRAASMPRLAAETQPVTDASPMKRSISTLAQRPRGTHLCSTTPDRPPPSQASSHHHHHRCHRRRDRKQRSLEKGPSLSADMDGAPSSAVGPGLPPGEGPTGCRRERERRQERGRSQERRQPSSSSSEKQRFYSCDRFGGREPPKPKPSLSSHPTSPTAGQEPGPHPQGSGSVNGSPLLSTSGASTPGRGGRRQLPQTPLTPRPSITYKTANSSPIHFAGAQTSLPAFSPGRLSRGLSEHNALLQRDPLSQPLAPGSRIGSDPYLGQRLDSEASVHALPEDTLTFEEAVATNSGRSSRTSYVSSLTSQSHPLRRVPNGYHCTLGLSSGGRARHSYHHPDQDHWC", "T7 sequence (Q02410 whole entry)": "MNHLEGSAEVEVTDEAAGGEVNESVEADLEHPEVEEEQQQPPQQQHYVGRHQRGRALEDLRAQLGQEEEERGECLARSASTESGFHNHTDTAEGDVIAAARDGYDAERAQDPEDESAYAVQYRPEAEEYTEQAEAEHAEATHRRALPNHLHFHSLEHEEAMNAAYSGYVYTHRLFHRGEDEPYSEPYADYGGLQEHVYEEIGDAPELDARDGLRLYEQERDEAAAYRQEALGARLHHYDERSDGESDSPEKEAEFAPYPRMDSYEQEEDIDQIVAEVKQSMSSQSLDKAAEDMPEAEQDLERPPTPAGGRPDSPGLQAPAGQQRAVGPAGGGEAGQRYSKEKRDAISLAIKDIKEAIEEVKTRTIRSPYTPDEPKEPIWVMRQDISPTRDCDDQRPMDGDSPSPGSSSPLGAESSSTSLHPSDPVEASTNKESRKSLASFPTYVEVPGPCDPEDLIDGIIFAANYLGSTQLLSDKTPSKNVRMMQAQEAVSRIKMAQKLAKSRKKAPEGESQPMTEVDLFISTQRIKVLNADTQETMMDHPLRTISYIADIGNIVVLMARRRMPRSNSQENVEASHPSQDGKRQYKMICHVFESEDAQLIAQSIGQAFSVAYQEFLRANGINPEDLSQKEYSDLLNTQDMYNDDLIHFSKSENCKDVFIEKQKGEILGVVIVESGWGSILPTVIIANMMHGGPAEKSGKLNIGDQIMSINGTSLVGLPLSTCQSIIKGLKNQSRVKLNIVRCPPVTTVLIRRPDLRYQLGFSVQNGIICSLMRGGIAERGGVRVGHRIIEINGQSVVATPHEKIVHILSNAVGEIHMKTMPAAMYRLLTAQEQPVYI", "assay_type": "protein assay"}, "[11]": {"target": "T7, Voltage-gated N-type calcium channel alpha-1B subunit/Amyloid beta A4 precursor protein-binding family A member 1", "assay_type": "protein assay", "remark": "listed apart in the source"}, "[12]": {"target": "Cytochrome P450 2C19 (Homo sapiens, UniProt P33261)", "test": "Cytochrome panel assay with activity outcomes. Panel member name: p450-cyp2c19 Compounds with AC50 equal or less than 10 uM are considered active", "assay_type": "functional", "conditions": "read-out: AC50"}, "[13]": {"target": "Cytochrome P450 2C9 (Homo sapiens, UniProt P11712)"}, "[14]": {"test": "decrease of insulin promoter-GFP reporter – imaging, high-content screening, mouse beta cells (AID 1628)", "assay_type": "functional", "conditions": "MIN6"}, "[15]": {"test": "MIN6 cell viability loss – mouse insulinoma, cytotoxicity control, dose response (AID 2122);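 further: confirmatory high-throughput counterscreen run to flag cytotoxic compounds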", "assay_type": "functional"}, "[16]": {"target": "T8, High affinity choline transporter 1 (Homo sapiens, UniProt Q9GZV3)", "T8 sequence (Q9GZV3 whole entry)": "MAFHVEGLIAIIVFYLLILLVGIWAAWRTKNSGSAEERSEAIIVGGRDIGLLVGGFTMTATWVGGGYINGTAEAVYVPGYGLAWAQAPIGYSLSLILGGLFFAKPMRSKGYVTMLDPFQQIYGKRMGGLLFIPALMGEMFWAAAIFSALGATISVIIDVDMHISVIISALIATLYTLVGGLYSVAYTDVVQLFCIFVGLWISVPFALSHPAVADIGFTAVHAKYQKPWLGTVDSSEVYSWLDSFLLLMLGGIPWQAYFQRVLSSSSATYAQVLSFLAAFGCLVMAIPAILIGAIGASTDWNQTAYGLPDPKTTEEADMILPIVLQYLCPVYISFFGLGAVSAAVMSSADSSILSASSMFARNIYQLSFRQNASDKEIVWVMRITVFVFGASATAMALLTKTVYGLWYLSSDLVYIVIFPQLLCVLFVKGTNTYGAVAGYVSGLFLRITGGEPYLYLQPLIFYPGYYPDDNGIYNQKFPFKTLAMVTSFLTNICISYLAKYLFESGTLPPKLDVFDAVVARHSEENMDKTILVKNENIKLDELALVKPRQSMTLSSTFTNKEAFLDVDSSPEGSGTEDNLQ", "test": "human choline transporter blockers, potency – cell-based, 5-point CRC, membrane potential dye, dose response (AID 504840)", "assay_type": "functional"}}, "note": "Active and inactive are the calls of the source."}
{"smiles": "CSc1nc(S)c2[nH]c(S)nc2n1", "values": [{"measurement": "EC50", "setting": "[1]", "result": "5.15 µM (active)"}, {"measurement": "EC50", "setting": "[2]", "result": "4.78 µM (active)"}, {"measurement": "IC50", "setting": "[3]", "result": "30.6 µM (active)"}, {"measurement": "IC50", "setting": "[4]", "result": "32.7 µM (active)"}]}
{"smiles": "COc1cc(/C=C2/SC(NS(=O)(=O)c3ccccc3)=NC2=O)c([N+](=O)[O-])cc1OC", "values": [{"measurement": "IC50", "setting": "[5]", "result": "24.1 µM (active)"}, {"measurement": "IC50", "setting": "[3]", "result": "45.8 µM (active)"}, {"measurement": "IC50", "setting": "[6]", "result": "> 66 µM (inactive)"}, {"measurement": "IC50", "setting": "[7]", "result": "> 66 µM (inactive)"}]}
{"smiles": "Cc1ccc(N2C(=O)NC(=O)/C(=C/C=C/c3ccco3)C2=O)cc1", "values": [{"measurement": "AC50", "setting": "[8]", "result": "1.65 µM (active)"}, {"measurement": "AC50", "setting": "[9]", "result": "5.97 µM (active)"}]}
{"smiles": "COc1ccc(CC(=O)Nc2ccc(-c3nnc(-c4ccccc4)o3)cc2)cc1", "values": [{"measurement": "IC50", "setting": "[10]", "result": "8.88 µM (active)"}, {"measurement": "IC50", "setting": "[11]", "result": "> 50 µM (inactive)"}, {"measurement": "AC50", "setting": "[12]", "result": "1.26 µM (inconclusive)"}, {"measurement": "AC50", "setting": "[13]", "result": "0.224 µM (inconclusive)"}]}
{"smiles": "CC1(C)CC(N2CCCC2)=CC(=[N+]2CCCCC2)C1", "values": [{"measurement": "IC50", "setting": "[14]", "result": "< 0.25 µM (active)"}, {"measurement": "IC50", "setting": "[15]", "result": "< 0.25 µM (active)"}]}
{"smiles": "CCc1ccc(OC(C)C(=O)Nc2ccc(S(=O)(=O)Nc3nccs3)cc2)cc1", "note": "(centres undefined)", "values": [{"measurement": "IC50", "setting": "[16]", "result": "13.8 µM (active)"}]}
{"smiles": "O=C(CCl)Nc1cccc(S(=O)(=O)NC2=NCCCCC2)c1", "values": [{"measurement": "AC50", "setting": "[9]", "result": "7.85 µM (active)"}]}
{"smiles": "CCOC(=O)C1=C(C)N=c2s/c(=C/c3cccc([N+](=O)[O-])c3O)c(=O)n2C1c1cc(OC)c(OC)c(OC)c1", "note": "(centres undefined)", "values": [{"measurement": "IC50", "setting": "[16]", "result": "13.2 µM (active)"}]}
